From US7314953B2, “Treatment of lung cells with histone deacetylase inhibitors” (Errant Gene Therapeutics, LLC, priority 2001, dated 2008)

Experiments:
non-CF HBE cells = test: Short circuit current (Ussing chamber), electrogenic sodium transport in non-CF HBE cells derived from COPD patients; type: cell-based, human; conditions: Homo sapiens; 1 μM, non-CF HBE cells
Procedure: Studies were carried out using human bronchial epithelial (HBE) cells derived from five cystic fibrosis (CF) patients and five nonCF patients. The protocol is described in Devor, D. C. et al., “Pharmacological modulation of ion transport across wild-type and DeltaF508 CFTR-expressing human bronchial epithelia,” Am. J. Physiol. 279: C461-C479, 2000.
Cells were isolated and grown on filters for short circuit current (Isc) studies. Cells were mounted in modified Ussing chambers and the Isc monitored. The change in Isc in response to amiloride (10 μM) was taken as a measure of net electrogenic sodium transport after equilibration for 20 minutes. Forskolin (2 μM), UTP (100 μM), and genistein (30 μM) were used to stimulate anion secretion. Results from 6 to 12 similar experiments were obtained.
7-Phenyl-2,4,6-heptatrienoylhydroxamic acid ([…]) was added to the culture medium and the cells were incubated for 24, 48, and 72 hours. Cells were fed every 24 hours with fresh media containing the compound. Control cells received an equivalent amount of vehicle (DMSO). Short circuit current measurements were also made on T84 cells, a human colonic epithethial cell line that secretes chloride by a CFTR mediated mechanism, and on M1 cells, a mouse kidney cell line that absorbs sodium by an ENaC mediated mechanism.
Table 3 sumarizes the results of treating non-CF cells derived from COPD patients with 30 μM 7-phenyl-2,4,6-heptatrienoylhydroxamic acid for 72 hours. Electrogenic sodium transport was estimated from the amiloride (5 μM) sensitive short circuit current. Anion secretion was estimated from the forskolin (2 μM) stimulated short circuit current after the addition of amiloride. The treatment of cells with 30 μM 7-phenyl-2,4,6-heptatrienoylhydroxamic acid for 72 hours caused an inhibition in the amiloride sensitive sodium transport of nearly 80%. This effect was concentration and dose dependent with a half-maximal inhibition concentration of 13 μM±3 μM and a half-maximal inhibition at 24 hours.

CF HBE cells = test: Short circuit current (Ussing chamber), electrogenic sodium transport in CF HBE cells; type: cell-based, human; conditions: HBE cells treated for 72 hours
histone deacetylase = histone deacetylase inhibitor; cited from earlier work

Compound: CC(/C=C/C(=O)NO)=C\[C@@H](C)C(=O)c1ccc(N(C)C)cc1 [Trichostatin, reference compound]
- inhibition at 1 µM (non-CF HBE cells): 70%
- effect on sodium transport (CF HBE cells; 3 nM, 30 nM, and 100 nM): no effect
- inhibition at 1 µM (CF HBE cells; Homo sapiens, 1 μM): 84%
- Ki (histone deacetylase): low
